# Measured values taken from patent US20070225252A1, “Ketogenic Saccharides” (priority 2004, published 2007).
# Assay: Ketogenesis in rats in vivo (plasma (R)-3-hydroxybutyrate after oral gavage)
# Parameters: species or system Male Sprague-Dawley rats
# Settings: rat, ANOVA/Dunnett P<0.05
# Description: Male Sprague-Dawley rats (weight range 200-250 g Charles River, Margate, Kent) were group housed in polypropylene cages at a temperature of 21±4° C. and 55±20% humidity and on a standard light/dark cycle. Animals had free access to a standard pelleted rat diet and tap water at all times. Animals were accustomed to these conditions for at least one week before experimentation.
# Compounds were administered by oral gavage (po). Control animals received the appropriate vehicle via the same route. The experiment was performed over 2 days (ie 2 compounds were tested per day). Blood samples were taken by cardiac puncture after the animals were killed by a British Home Office Schedule 1 method. The terminal blood sample was collected into suitable plasma preparation tubes (EDTA-coated tubes). Plasma samples were initially frozen on dry ice and transferred to a −75° C. freezer until required for subsequent analysis (spectrophotometric analysis of (R)-3-hydroxybutyrate).
# Sodium DL-β-hydroxybutyrate (H-6501 Lot 111K2618) was obtained from Sigma A stock solution of β-hydroxybutyrate (40 mM DL racemate equivalent to 20 mM D-isomer) was prepared in 0.9% saline solution, kept at 4° C. and used to generate appropriate dilutions for an assay standard curve.
# Commercial clinical assay kits for the determination of D-β-hydroxybutyrate were obtained from Randox Laboratories (Antrim, UK). Kits were obtained in two pack sizes (Ranbut RB1007: 10×10 ml and RB1008: 10×50 ml) but were otherwise identical. […] The kit relies on measuring the appearance of NADH via the activity of β-hydroxybutyrate dehydrogenase measured as an increase of OD340 nm. […]
# The protocol supplied with the Ranbut kits was for a discrete (cuvette-based) spectrophotometzic assay, so the protocol was modified for suitability with a 96-well microplate format using blank, flat-bottomed microplates (Greiner PS 655101 Lot 98 35 01). […] Standard dilutions and samples were pipetted a single plate at a time and preincubated at 37° C. for 15 minutes in the sample compartment of a Molecular Devices VERSAmax tunable microplate reader: The appropriate volume of assay reagent was reconstituted, according to instructions, using distilled water and preincubated at 37° C. for 15 minutes using a static water bath. […] The plate was reloaded, mixed and then the change in OD340 nm followed in kinetic mode with a reading at every 15 seconds for a total of 2 minutes. The reaction rate was then determined from the OD increase over a suitable 1 minute period, after allowing a necessary period for the reaction rate to settle. The rate between 45 seconds and 105 seconds was used as the default measuring period, though occasionally a different period was used as necessary (eg if an aberrant reading was obtained at one of these time-points). […]
substance,measurement,setting,value
sorbitol 3-hydroxybutyrate tri-ester [KTX 0313],increases in plasma 3-hydroxybutyrate concentrations (ketogenesis),"300 mg/kg po, blood sampling 30, 120, 240 min vs vehicle baseline",significant increases
glucose (R)-3-hydroxybutyrate ester [KTX 0310],increases in plasma 3-hydroxybutyrate concentrations (ketogenesis),"440 mg/kg po, blood sampling 30, 120, 240 min vs vehicle",did not evoke significant ketogenesis
fructose (R)-3-hydroxybutyrate ester [KTX 0311],increases in plasma 3-hydroxybutyrate concentrations (ketogenesis),"441 mg/kg po, blood sampling 30, 120, 240 min vs vehicle baseline",significant increases
arabinose (R)-3-hydroxybutyrate ester [KTX 0312],increases in plasma 3-hydroxybutyrate concentrations (ketogenesis),"351 mg/kg po, blood sampling 30, 120, 240 min vs vehicle",did not evoke significant ketogenesis
